The structures appear in SMILES notation. Structures can show the parent of a compound that is named as a salt.

One assay concerns MMP-13. Nature of the assay: MMP-13 production inhibition test. It counts as cell-based. Conditions: 30 μmol/L; human cartilage derived cell line SW1353, IL-1β 10 ng/mL, 16 hours after stimulation, MMP-13 in culture supernatant by ELISA; read-out: Inhibition rate (%) at 30 μmol/L. On the procedure: MMP-13 Production Inhibition Test
6.8×10^3 human cartilage derived cell line SW1353 cells were suspended in 100 μL of Dulbecco modified Eagle's medium supplemented with 10% fetal calf serum, plated on 96-well plates and cultured for 3 days. After the culture medium was changed to Dulbecco modified Eagle's medium containing 0.2% lactalbumin hydrolysate and the cells were cultured for 6 hours, test compounds were added and then IL-1β was added to obtain the final concentration of 10 ng/mL 1 hour later. 16 hours after the stimulation, supernatant was collected and the amount of MMP-13 in the culture supernatant was determined with an ELISA kit (Amersham). The inhibition rate was calculated from the amount of MMP-13 in the presence of a test compound assuming that the amount of MMP-13 was 100% in the absence of the test compound.
In general terms: An ELISA detects its analyte on a solid surface through an enzyme-linked reagent.
As to `O=C(O)c1ccc(CCc2ccccc2)cc1Nc1ccc(F)cc1` [Example 38, 2-(4-Fluoroanilino)-4-phenethylbenzoic acid], the inhibition at 30 µM was determined as 97%. With `CC(=O)Nc1cccc(CCc2ccc(C(=O)O)c(Nc3ccc(F)cc3)c2)c1` [Example 262, 4-(2-(3-Acetamidophenyl)ethyl)-2-(4-fluoroanilino)benzoic acid], the inhibition at 30 µM came to 80%. The same measure, in the same setting: the value for `O=C(O)c1ccc(-c2cccc(Cl)c2)cc1Nc1cccc(O)c1` [Example 271, 4-(3-chlorophenyl)-2-((3-hydroxyphenyl)amino)benzoic acid] was 97%; that for `Cc1ccccc1Nc1cc(-c2ccc(NS(C)(=O)=O)cc2)ccc1C(=O)O` [Example 273, 4-(4-(methanesulfonamido)phenyl)-2-(2-methylanilino)benzoic acid] was 83%. Still for that read-out and setting: the result for `Cc1ccccc1Nc1cc(-c2cccc(O)c2)ccc1C(=O)O` [Example 280, 4-(3-Hydroxyphenyl)-2-(2-methylanilino)benzoic acid] reads 90%; that for `O=C(O)c1ccc(N2CCc3ccccc32)cc1Nc1cccc(O)c1` [Example 286, 2-((3-hydroxyphenyl)amino)-4-(indolin-1-yl)benzoic acid], 96%; that for `COc1cccc(CCc2ccc(C(=O)O)c(Nc3ccccc3C)c2)c1` [Example 290, 4-(2-(3-Methoxyphenyl)ethyl)-2-(2-methylanilino)benzoic acid], 98%.

For the compound `O=C(O)c1ccc(CCc2ccc3c(c2)OCCO3)cc1Nc1cccc(O)c1` [Example 293, 4-(2-(2,3-dihydro[1,4]benzodioxin-6-yl)ethyl)-2-((3-hydroxyphenyl)amino)benzoic acid], the inhibition at 30 µM is 87%. Still for that read-out and setting: the value for `O=C(O)c1ccc(CCc2ccccc2)cc1Nc1cc(-c2ccccc2)n[nH]1` [Example 329, 4-Phenethyl-2-((3-phenyl-1H-pyrazol-5-yl)amino)benzoic acid] was 96%; that for `O=C(O)c1ccc(CCc2ccccc2)cc1Nc1ccc2[nH]ccc2c1` [Example 331, 2-((1H-Indol-5-yl)amino)-4-phenethylbenzoic acid] was 97%. In the case of `O=C(O)c1ccc(-c2ccccc2)cc1Nc1cccc2cccnc12` [Example 340, 4-Phenyl-2-((quinolin-8-yl)amino)benzoic acid], the inhibition at 30 µM was determined as 97%.

For `O=C(O)c1ccc(-c2ccccc2)cc1Nc1ccccc1Cl` [Example 343, 2-(2-Chloroanilino)-4-phenylbenzoic acid], the inhibition at 30 µM came to 98%. In the case of `O=C(O)c1ccc(-c2ccccc2)cc1NCC=Cc1ccccc1` [Example 350, 2-(Cinnamylamino)-4-phenylbenzoic acid], the inhibition at 30 µM was 91%.

As to `O=C(O)c1ccc(CCc2ccccc2)cc1Nc1cccc2cnccc12` [Example 360, 2-((Isoquinolin-5-yl)amino)-4-phenethylbenzoic acid trifluoroacetate], the inhibition at 30 µM amounted to 97%.

Consider `O=C(O)c1ccc(CCc2ccccc2)cc1Nc1cccc(-n2cccn2)c1` [Example 362, 4-Phenethyl-2-(3-(1H-pyrazol-1-yl)phenylamino)benzoic acid], for which the inhibition at 30 µM was determined as 97%. Same read-out and setting: the value for `O=C(O)c1ccc(CCc2ccccc2)cc1Nc1ccc(-n2cccn2)cc1` [Example 363, 4-Phenethyl-2-(4-(1H-pyrazol-1-yl)phenylamino)benzoic acid] was 96%; that for `CN(C)c1ccccc1Nc1cc(-c2ccccc2)ccc1C(=O)O` [Example 372, 2-((2-(dimethylamino)phenyl)amino)-4-phenylbenzoic acid] was 97%.

The next assay concerns type II collagen-induced arthritis. Nature of the assay: Type II collagen-induced arthritis in mice. It counts as in vivo. The following applies: male DBA/1 J mice, 10 mg/kg orally once a day from the 21st day to the 35th day. On the procedure:
Type II Collagen-Induced Arthritis in Mice
Eight-week old male DBA/1 J mice were used (Charles River Laboratories Japan Inc.). 4 mg/mL bovine type II collagen (Collagen Gijutsu Kenshukai) dissolved in 0.01 mol/L of acetic acid aqueous solution and an equal amount of Freund's complete adjuvant (Chondorex) containing 1 mg/mL of killed tuberculosis bacillus were added to prepare an emulsion, and 0.1 mL thereof was intradermally injected at the base of tail. Similar treatment was conducted on the 21st day to cause arthritis. The test compound was suspended in 0.5% methylcellulose aqueous solution, and 10 mg/kg was orally administered once a day from the 21st day to the 35th day. In the control group,0.5% methylcellulose aqueous solution was administered in the same manner. The severity of arthritis was estimated by scoring at zero point for an animal without change; one point for an animal with swelling at the one or two finger joint or light swelling only at the carpal or tarsal joint; two points for an animal with severe swelling at the carpal or tarsal joint or with swelling at three or more finger joints; three points for an animal with severe swelling along the whole foreleg or hindleg and thus counting 12 points at the maximum for the four limbs as arthritis score. […] The inhibitory rate was determined by the following expression. […]
As for `O=C(O)c1ccc(CCc2ccccc2)cc1Nc1ccc(F)cc1` [Example 38, 2-(4-Fluoroanilino)-4-phenethylbenzoic acid], the “inhibitory action on arthritis (arthritis score)” value was “exhibited inhibitory action” and the “inhibitory action on bone destruction (bone destruction score, X-ray on the 36th day)” value is “exhibited inhibitory action”.

The values above are taken from patent publication US8327467B2, “Anthranilic acid derivative or salt thereof” (Toyama Chemical Co., Ltd., priority 2005, dated 2012).
